Data as given in ChEMBL document CHEMBL4507289, “Data for DCP probe GSM1” (2021).

How the values were obtained:
[1] = molecular target: Insulin receptor-related protein (Homo sapiens) (UniProt P14616); settings: Compound concentration 1000.0 nM
[2] = tested on: Phosphatidylinositol 4,5-bisphosphate 3-kinase catalytic subunit alpha isoform (Homo sapiens), P42336 [E545K]; settings: Compound concentration 1000.0 nM
[3] = molecular target: Cyclin-dependent kinase-like 1 (Homo sapiens) (UniProt Q00532); settings: Compound concentration 1000.0 nM
[4] = molecular target: Myosin-IIIb (Homo sapiens) (UniProt Q8WXR4); settings: Compound concentration 1000.0 nM
[5] = molecular target: Serine/threonine-protein kinase BRSK1 (Homo sapiens) (UniProt Q8TDC3); settings: Compound concentration 1000.0 nM
[6] = molecular target: Myosin light chain kinase, smooth muscle (Homo sapiens) (UniProt Q15746); settings: Compound concentration 1000.0 nM
[7] = molecular target: Tyrosine-protein kinase Srms (Homo sapiens) (UniProt Q9H3Y6); settings: Compound concentration 1000.0 nM
[8] = molecular target: Mitogen-activated protein kinase 13 (Homo sapiens) (UniProt O15264); settings: Compound concentration 1000.0 nM
[9] = molecular target: Serine/threonine-protein kinase Nek7 (Homo sapiens) (UniProt Q8TDX7); settings: Compound concentration 1000.0 nM
[10] = molecular target: Fibroblast growth factor receptor 2 (Homo sapiens) (UniProt P21802); settings: Compound concentration 1000.0 nM
[11] = molecular target: Receptor tyrosine-protein kinase erbB-2 (Homo sapiens) (UniProt P04626); settings: Compound concentration 1000.0 nM
[12] = tested on: Epidermal growth factor receptor (Homo sapiens), P00533 [G719C]; settings: Compound concentration 1000.0 nM
[13] = tested on: Mast/stem cell growth factor receptor Kit (Homo sapiens), P10721 [A829P]; settings: Compound concentration 1000.0 nM
[14] = molecular target: MAP kinase-interacting serine/threonine-protein kinase 1 (Homo sapiens) (UniProt Q9BUB5); settings: Compound concentration 1000.0 nM
[15] = molecular target: Serine/threonine-protein kinase 32C (Homo sapiens) (UniProt Q86UX6); settings: Compound concentration 1000.0 nM
[16] = tested on: Tyrosine-protein kinase ABL1 (Homo sapiens), P00519 [F317L]; settings: Compound concentration 1000.0 nM
[17] = molecular target: Serine/threonine-protein kinase STK11 (Homo sapiens) (UniProt Q15831); settings: Compound concentration 1000.0 nM
[18] = molecular target: Delta-type opioid receptor (Homo sapiens) (UniProt P41143); settings: Compound concentration 10.0 uM
[19] = molecular target: Death-associated protein kinase 2 (Homo sapiens) (UniProt Q9UIK4); settings: Compound concentration 1000.0 nM
[20] = molecular target: Dual specificity tyrosine-phosphorylation-regulated kinase 2 (Homo sapiens) (UniProt Q92630); settings: Compound concentration 1000.0 nM
[21] = molecular target: Casein kinase I isoform alpha (Homo sapiens) (UniProt P48729); settings: Compound concentration 1000.0 nM
[22] = molecular target: Activin receptor type-1 (Homo sapiens) (UniProt Q04771); settings: Compound concentration 1000.0 nM
[23] = molecular target: Serine/threonine-protein kinase PAK 3 (Homo sapiens) (UniProt O75914); settings: Compound concentration 1000.0 nM
[24] = molecular target: cGMP-dependent protein kinase 1 (Homo sapiens) (UniProt Q13976); settings: Compound concentration 1000.0 nM
[25] = molecular target: Calcium/calmodulin-dependent protein kinase kinase 2 (Homo sapiens) (UniProt Q96RR4); settings: Compound concentration 1000.0 nM
[26] = molecular target: Histamine H4 receptor (Homo sapiens) (UniProt Q9H3N8); settings: Compound concentration 10.0 uM
[27] = molecular target: Serine/threonine-protein kinase TNNI3K (Homo sapiens) (UniProt Q59H18); settings: Compound concentration 1000.0 nM
[28] = molecular target: Mitogen-activated protein kinase kinase kinase 1 (Homo sapiens) (UniProt Q13233); settings: Compound concentration 1000.0 nM
[29] = molecular target: Protein-tyrosine kinase 2-beta (Homo sapiens) (UniProt Q14289); settings: Compound concentration 1000.0 nM
[30] = tested on: Receptor-type tyrosine-protein kinase FLT3 (Homo sapiens), P36888 [UNDEFINED MUTATION]; settings: Compound concentration 1000.0 nM
[31] = molecular target: Serine/threonine-protein kinase VRK2 (Homo sapiens) (UniProt Q86Y07); settings: Compound concentration 1000.0 nM
[32] = molecular target: Serine/threonine-protein kinase PLK3 (Homo sapiens) (UniProt Q9H4B4); settings: Compound concentration 1000.0 nM
[33] = tested on: Phosphatidylinositol 4,5-bisphosphate 3-kinase catalytic subunit alpha isoform (Homo sapiens), P42336 [M1043I]; settings: Compound concentration 1000.0 nM
[34] = molecular target: Interleukin-1 receptor-associated kinase 4 (Homo sapiens) (UniProt Q9NWZ3); settings: Compound concentration 1000.0 nM
[35] = molecular target: Tyrosine-protein kinase Yes (Homo sapiens) (UniProt P07947); settings: Compound concentration 1000.0 nM
[36] = molecular target: Hepatocyte growth factor receptor (Homo sapiens) (UniProt P08581); settings: Compound concentration 1000.0 nM
[37] = molecular target: Serine/threonine-protein kinase tousled-like 2 (Homo sapiens) (UniProt Q86UE8); settings: Compound concentration 1000.0 nM
[38] = molecular target: Ribosomal protein S6 kinase alpha-4 (Homo sapiens) (UniProt O75676); settings: Compound concentration 1000.0 nM
[39] = molecular target: Phosphatidylinositol 4,5-bisphosphate 3-kinase catalytic subunit delta isoform (Homo sapiens) (UniProt O00329); settings: Compound concentration 1000.0 nM
[40] = molecular target: Cyclin-dependent kinase 4 (Homo sapiens) (UniProt P11802); settings: Compound concentration 1000.0 nM
[41] = molecular target: Rhodopsin kinase GRK7 (Homo sapiens) (UniProt Q8WTQ7); settings: Compound concentration 1000.0 nM
[42] = molecular target: Tyrosine-protein kinase ABL1 (Homo sapiens) (UniProt P00519); settings: Compound concentration 1000.0 nM
[43] = molecular target: Tyrosine-protein kinase Blk (Homo sapiens) (UniProt P51451); settings: Compound concentration 1000.0 nM
[44] = molecular target: SRSF protein kinase 1 (Homo sapiens) (UniProt Q96SB4); settings: Compound concentration 1000.0 nM
[45] = molecular target: TRAF2 and NCK-interacting protein kinase (Homo sapiens) (UniProt Q9UKE5); settings: Compound concentration 1000.0 nM

Chain of Myosin-IIIb (Homo sapiens) (Q8WXR4 whole entry): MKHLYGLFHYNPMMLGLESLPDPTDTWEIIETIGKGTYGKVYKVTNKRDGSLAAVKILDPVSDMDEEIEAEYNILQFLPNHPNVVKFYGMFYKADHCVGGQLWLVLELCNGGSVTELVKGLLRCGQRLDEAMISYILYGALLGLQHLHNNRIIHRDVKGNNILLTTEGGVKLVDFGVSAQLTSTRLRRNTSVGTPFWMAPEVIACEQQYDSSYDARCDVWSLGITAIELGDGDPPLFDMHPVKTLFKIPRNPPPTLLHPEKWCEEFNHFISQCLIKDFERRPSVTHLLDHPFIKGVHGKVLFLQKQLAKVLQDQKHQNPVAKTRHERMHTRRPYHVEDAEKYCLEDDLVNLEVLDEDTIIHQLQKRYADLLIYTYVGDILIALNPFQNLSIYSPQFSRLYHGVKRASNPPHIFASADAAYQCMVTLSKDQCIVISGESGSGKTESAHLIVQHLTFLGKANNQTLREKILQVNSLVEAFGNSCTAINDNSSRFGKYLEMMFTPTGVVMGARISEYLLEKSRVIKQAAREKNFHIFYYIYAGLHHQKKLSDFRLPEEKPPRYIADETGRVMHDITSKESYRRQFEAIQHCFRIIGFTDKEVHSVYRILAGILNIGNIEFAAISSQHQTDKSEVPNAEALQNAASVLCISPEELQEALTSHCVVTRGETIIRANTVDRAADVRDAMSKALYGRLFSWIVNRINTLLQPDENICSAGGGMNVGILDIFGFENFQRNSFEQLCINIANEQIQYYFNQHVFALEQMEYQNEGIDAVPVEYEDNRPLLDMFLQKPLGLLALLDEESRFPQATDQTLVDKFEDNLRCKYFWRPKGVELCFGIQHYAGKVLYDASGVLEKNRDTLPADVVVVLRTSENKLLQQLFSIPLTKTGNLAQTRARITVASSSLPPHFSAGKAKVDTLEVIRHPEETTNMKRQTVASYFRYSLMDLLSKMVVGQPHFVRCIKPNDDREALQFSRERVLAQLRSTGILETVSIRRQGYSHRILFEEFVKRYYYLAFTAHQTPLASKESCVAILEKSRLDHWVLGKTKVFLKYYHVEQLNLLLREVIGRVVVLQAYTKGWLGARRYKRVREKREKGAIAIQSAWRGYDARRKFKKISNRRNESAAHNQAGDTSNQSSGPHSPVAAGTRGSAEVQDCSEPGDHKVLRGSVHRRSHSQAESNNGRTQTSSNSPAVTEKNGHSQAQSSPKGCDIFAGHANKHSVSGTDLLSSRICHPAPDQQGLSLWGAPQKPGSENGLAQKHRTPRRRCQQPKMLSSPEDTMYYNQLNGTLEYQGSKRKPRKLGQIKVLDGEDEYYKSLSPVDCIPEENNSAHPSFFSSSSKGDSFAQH
Chain of Serine/threonine-protein kinase PLK3 (Homo sapiens) (Q9H4B4 whole entry, looked up, canonical isoform): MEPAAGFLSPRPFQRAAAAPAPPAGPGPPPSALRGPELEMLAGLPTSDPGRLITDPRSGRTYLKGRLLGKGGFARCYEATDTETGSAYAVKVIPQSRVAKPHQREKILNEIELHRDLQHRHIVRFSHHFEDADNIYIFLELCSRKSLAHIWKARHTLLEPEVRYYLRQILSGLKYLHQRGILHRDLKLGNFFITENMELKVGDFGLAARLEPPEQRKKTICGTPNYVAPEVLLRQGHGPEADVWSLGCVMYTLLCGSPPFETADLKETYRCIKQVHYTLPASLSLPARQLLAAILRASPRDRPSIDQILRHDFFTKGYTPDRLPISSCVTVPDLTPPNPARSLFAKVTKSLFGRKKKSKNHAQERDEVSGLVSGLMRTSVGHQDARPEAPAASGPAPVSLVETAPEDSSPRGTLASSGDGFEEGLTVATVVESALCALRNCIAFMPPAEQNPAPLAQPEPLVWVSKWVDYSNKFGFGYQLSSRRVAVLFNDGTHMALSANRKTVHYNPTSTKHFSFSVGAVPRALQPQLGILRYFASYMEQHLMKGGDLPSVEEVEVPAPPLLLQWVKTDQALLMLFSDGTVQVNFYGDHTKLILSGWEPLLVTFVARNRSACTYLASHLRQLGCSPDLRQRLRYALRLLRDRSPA
Chain of Dual specificity tyrosine-phosphorylation-regulated kinase 2 (Homo sapiens) (Q92630 whole entry, canonical isoform): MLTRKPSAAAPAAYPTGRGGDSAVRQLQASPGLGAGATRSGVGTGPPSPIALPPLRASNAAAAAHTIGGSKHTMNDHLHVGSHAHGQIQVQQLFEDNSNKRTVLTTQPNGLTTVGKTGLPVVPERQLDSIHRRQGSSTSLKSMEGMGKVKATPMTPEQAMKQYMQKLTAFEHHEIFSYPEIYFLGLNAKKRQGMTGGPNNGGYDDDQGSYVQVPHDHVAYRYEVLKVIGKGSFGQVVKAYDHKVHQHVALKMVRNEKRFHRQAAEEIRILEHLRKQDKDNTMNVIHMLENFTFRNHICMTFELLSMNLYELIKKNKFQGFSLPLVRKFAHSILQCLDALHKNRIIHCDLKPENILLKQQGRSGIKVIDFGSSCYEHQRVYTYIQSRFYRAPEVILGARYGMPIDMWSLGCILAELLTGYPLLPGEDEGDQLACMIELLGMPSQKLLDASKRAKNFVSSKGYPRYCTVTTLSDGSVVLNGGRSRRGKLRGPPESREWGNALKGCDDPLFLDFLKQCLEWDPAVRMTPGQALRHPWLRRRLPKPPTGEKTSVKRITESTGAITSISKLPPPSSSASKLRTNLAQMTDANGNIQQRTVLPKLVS
Chain of Cyclin-dependent kinase 4 (Homo sapiens) (P11802 whole entry): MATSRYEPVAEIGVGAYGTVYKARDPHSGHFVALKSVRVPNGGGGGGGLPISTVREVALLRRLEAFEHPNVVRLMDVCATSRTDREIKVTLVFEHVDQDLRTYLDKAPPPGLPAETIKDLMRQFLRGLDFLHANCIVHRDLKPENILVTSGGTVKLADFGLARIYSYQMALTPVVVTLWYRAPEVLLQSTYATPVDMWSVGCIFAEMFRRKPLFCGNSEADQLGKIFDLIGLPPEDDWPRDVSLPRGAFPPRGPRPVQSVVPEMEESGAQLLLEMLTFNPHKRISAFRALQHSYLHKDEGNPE
Chain of Phosphatidylinositol 4,5-bisphosphate 3-kinase catalytic subunit alpha isoform (Homo sapiens), P42336 [E545K] (P42336 whole entry E545K, canonical isoform): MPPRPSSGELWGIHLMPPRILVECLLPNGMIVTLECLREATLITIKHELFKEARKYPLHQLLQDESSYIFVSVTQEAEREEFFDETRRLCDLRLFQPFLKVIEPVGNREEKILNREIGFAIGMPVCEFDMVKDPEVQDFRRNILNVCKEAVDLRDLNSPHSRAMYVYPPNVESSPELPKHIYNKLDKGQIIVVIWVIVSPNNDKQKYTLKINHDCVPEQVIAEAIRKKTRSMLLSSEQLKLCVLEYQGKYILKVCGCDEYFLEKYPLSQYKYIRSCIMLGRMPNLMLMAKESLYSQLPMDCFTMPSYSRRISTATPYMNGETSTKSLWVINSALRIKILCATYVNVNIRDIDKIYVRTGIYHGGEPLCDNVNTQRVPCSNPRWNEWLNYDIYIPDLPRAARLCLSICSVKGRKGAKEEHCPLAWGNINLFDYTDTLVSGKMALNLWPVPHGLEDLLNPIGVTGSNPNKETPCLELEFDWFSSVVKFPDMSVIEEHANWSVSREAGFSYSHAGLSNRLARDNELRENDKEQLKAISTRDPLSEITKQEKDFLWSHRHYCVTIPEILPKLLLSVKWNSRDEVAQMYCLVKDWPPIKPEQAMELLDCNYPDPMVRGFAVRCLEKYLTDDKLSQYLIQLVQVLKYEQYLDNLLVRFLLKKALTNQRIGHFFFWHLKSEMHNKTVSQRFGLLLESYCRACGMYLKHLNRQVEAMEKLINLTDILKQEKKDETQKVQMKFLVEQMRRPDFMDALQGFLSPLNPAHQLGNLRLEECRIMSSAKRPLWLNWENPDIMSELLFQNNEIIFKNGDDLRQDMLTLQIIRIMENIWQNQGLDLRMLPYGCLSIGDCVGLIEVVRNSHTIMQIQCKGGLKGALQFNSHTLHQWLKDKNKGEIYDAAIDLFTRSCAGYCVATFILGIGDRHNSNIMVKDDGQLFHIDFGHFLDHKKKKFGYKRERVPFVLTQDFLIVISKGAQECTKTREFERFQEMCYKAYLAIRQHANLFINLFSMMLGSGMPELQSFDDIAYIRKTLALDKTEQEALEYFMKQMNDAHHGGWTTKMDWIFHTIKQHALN
Chain of Rhodopsin kinase GRK7 (Homo sapiens) (Q8WTQ7 whole entry): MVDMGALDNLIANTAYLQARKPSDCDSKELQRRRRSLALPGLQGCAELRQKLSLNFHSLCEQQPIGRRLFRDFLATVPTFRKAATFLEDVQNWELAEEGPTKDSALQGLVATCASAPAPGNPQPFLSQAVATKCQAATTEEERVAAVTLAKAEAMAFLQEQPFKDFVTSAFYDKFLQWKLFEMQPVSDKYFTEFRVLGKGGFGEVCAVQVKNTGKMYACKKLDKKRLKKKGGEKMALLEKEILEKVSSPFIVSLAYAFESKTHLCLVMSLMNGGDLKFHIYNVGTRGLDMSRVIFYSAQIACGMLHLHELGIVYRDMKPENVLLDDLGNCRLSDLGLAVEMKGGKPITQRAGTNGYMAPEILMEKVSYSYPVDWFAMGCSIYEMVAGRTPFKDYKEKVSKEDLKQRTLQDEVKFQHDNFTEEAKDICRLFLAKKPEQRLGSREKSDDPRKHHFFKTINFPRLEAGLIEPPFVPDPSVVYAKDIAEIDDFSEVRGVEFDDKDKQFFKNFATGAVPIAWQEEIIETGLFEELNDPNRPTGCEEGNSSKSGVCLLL
Chain of Tyrosine-protein kinase Yes (Homo sapiens) (P07947 2-543 limits assumed): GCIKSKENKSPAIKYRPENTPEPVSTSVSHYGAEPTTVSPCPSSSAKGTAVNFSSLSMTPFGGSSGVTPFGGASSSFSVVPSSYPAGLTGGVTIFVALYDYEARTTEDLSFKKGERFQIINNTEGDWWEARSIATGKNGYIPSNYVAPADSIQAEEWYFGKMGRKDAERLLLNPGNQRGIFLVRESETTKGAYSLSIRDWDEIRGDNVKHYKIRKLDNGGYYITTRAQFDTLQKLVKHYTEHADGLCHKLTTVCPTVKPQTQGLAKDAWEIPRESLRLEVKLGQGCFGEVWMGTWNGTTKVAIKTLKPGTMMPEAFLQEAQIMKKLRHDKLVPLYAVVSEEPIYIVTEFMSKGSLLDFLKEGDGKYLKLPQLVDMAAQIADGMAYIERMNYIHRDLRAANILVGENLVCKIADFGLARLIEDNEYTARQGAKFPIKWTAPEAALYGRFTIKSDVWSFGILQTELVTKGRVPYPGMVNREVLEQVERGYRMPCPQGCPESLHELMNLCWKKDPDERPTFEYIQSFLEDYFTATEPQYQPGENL

COc1cc(-c2cn([C@H]3CCc4ccccc4N(CC(F)(F)F)C3=O)nn2)ccc1-n1ccc(C)n1
inactive: residual activity [1] 100% | residual activity [2] 84% | residual activity [3] 97% | residual activity [4] 100% | residual activity [5] 81% | residual activity [6] 80% | residual activity [7] 84% | residual activity [8] 88% | residual activity [9] 100% | residual activity [10] 100% | residual activity [11] 100% | residual activity [12] 100% | residual activity [13] 68% | residual activity [14] 78% | residual activity [15] 84% | residual activity [16] 57% | residual activity [17] 100% | inhibition [18] 16.7% | residual activity [19] 100% | residual activity [20] 94% | residual activity [21] 98% | residual activity [22] 100% | residual activity [23] 100% | residual activity [24] 100% | residual activity [25] 100% | inhibition [26] 9.63% | residual activity [27] 100% | residual activity [28] 72% | residual activity [29] 100% | residual activity [30] 80% | residual activity [31] 100% | residual activity [32] 96% | residual activity [33] 100% | residual activity [34] 95% | residual activity [35] 100% | residual activity [36] 100% | residual activity [37] 97% | residual activity [38] 78% | residual activity [39] 100% | residual activity [40] 86% | residual activity [41] 87% | residual activity [42] 78% | residual activity [43] 100% | residual activity [44] 100% | residual activity [45] 81%

COc1cc(-c2cn([C@H]3CCc4c(F)cccc4N(CC(F)(F)F)C3=O)nn2)ccc1-n1cnc(C)c1
inactive: residual activity [1] 100% | residual activity [2] 70% | residual activity [3] 100% | residual activity [4] 100% | residual activity [5] 92% | residual activity [6] 81% | residual activity [7] 100% | residual activity [8] 100% | residual activity [9] 100% | residual activity [10] 100% | residual activity [11] 100% | residual activity [12] 94% | residual activity [13] 92% | residual activity [14] 87% | residual activity [15] 100% | residual activity [16] 78% | residual activity [17] 100% | inhibition [18] 18.2% | residual activity [19] 100% | residual activity [20] 100% | residual activity [21] 100% | residual activity [22] 100% | residual activity [23] 100% | residual activity [24] 100% | residual activity [25] 100% | inhibition [26] -2.49% | residual activity [27] 100% | residual activity [28] 100% | residual activity [29] 100% | residual activity [30] 82% | residual activity [31] 100% | residual activity [32] 100% | residual activity [33] 100% | residual activity [34] 100% | residual activity [35] 100% | residual activity [36] 100% | residual activity [37] 100% | residual activity [38] 100% | residual activity [39] 100% | residual activity [40] 100% | residual activity [41] 100% | residual activity [42] 94% | residual activity [43] 100% | residual activity [44] 100% | residual activity [45] 94%
